The record followed here is patent US11504371B2, “Quinazolines compound, preparation method therefor and application thereof” (Beijing Normal University, priority 2017, dated 2022).

Entries after “also recorded” stand apart in the source; their conditions may differ. Where two headings read alike, the source gives them in different places.

The subject of series [1] is HepG2 cancer cells. The series is described as follows: Nude mice bearing HepG2 cancer cells. The conditions noted are these: for weight loss of nude mice (FIG. 6): 40 mg/Kg, single agent; for tumor growth (tumor volume, FIG. 5): nude mice bearing HepG2, single agent.
Protocol: Firstly, a tumor-bearing nude mouse model was established. […] Then, grouping and administration were performed; the nude mice (5 mice in each group) were randomly divided into several groups, such as ultra-pure water control group (blank), positive drug control group, and different dosage treatment groups. The nude mice in each group were administered continuously for 40 days. The nude mice were weighted every other day during the administration. Tumor volumes were measured and calculated.
The subject of series [2] is human neuroblastoma cell line (SH-SY5Y). Briefly: MTT assay, tumor cell proliferation inhibition, SH-SY5Y. Format: cell-based. The conditions noted are these: SH-SY5Y, 72 h, read-out: Tumor inhibition rate (IC50). How it is done:
(§1) Cell lines to be tested: human hepatoma cell line (HepG2), human lung cancer cell line (A549), human prostate cancer cell line (DU145), human breast cancer cell line (MCF-7), human neuroblastoma cell line (SH-SY5Y), human gastric mucosal cell line (Ges-1) and human embryonic lung fibroblast cell line (CCC-HPF-1) (the cells to be tested were purchased from the Cancer Hospital of Chinese Academy of Medical Sciences).
(§2) The cells in logarithmic growth phase were treated to prepare a single cell suspension, with the cell density adjusted, which was seeded in a 96-well cell culture plate. About 2×10^3 cells were contained in 100 μL per well, and cultured in a cell incubator at 37° C., 5% CO2, and saturated humidity for 24 h. The used medium was aspirated and abandoned, and then 100 μL of the target compound in different concentrations (0.1 μM-100 μM) were added for drug treatment. Five duplicate wells were prepared for each concentration. The background blank well, negative control well and positive control well were also prepared. All the wells were placed in a cell culture incubator at 37° C., 5% CO2, saturated humidity for another 72 h. Then, each well was added with 10 μL of MTT solution (5 mg/mL) and incubated for another 4 h. After that, each well was added with 100 μL of 10% SDS-0.1% NH4Cl (10% SDS purchased from Beijing Mengyimei Biotechnology Co., Ltd.) solution, and incubated at 37° C. for 10 h in the dark. Then, the absorbance OD was measured at 570 nm using a microplate reader at a reference wavelength of 650 nm. Cell proliferation inhibition was calculated according to the following formula: % inhibition=(ODcontrol−ODtreat)(ODcontrol−ODblank)×100. […] Each group was performed at least three times in parallel.
On the technique in general: Formazan colour is commonly taken as a measure of viable cells.

For series [3], the system named is human breast cancer cell line (MCF-7). Briefly: MTT assay, tumor cell proliferation inhibition, MCF-7. The conditions noted are these: for IC50: MCF-7, MTT, 72 h, read-out: Tumor inhibition rate (IC50). The class given is cell-based. How it is done:
as §1, §2

The subject of series [4] is human hepatoma cell line (HepG2). The series is described as follows: MTT assay, tumor cell proliferation inhibition, HepG2. The class given is cell-based. As to conditions: 72 h, read-out: Tumor inhibition rate (IC50). How it is done:
as §1, §2

Series [5] has as its system human lung cancer cell line (A549). Briefly: MTT assay, tumor cell proliferation inhibition, A549. As to conditions: for IC50: A549, MTT, 72 h, read-out: Tumor inhibition rate (IC50). Format: cell-based. How it is done: as §1, §2
Series [6] has as its system human prostate cancer cell line (DU145). The series is described as follows: MTT assay, tumor cell proliferation inhibition, DU145. The class given is cell-based. The conditions noted are these: for IC50: DU145, MTT, 72 h, read-out: Tumor inhibition rate (IC50). How it is done:
as §1, §2

For series [7], the system named is A549 cancer cells. Briefly: Nude mice bearing A549 cancer cells. The class given is in vivo. The conditions noted are these: mouse, in vivo. How it is done: (§3) In the present invention, the antitumor activity was evaluated by intraperitoneal injection to nude mice bearing different tumors, for compounds 3 (N-(4-((4-nitrophenyl)methoxy)phenyl)-6,7-(benzo-9-crown-3)-4-quinazolinamine) and 23 (compounds No. are shown in Table 1) (N-(3-((4-trifluoromethylphenyl)methoxy)phenyl)-6,7-(benzo-12-crown-4)-4-quinazolinamine) of formula (I).
(§4) Firstly, a tumor-bearing nude mouse model was established. 0.2-1 mL of cell suspension was inoculated subcutaneously into the left lower limb of nude mice, and the drug was administered when the tumor volume reached about 100 mm^3. Then, grouping and administration were performed; the nude mice (5 mice in each group) were randomly divided into several groups, such as ultra-pure water control group (blank), positive drug control group, and different dosage treatment groups. The nude mice in each group were administered continuously for 40 days. The nude mice were weighted every other day during the administration. Tumor volumes were measured and calculated. Then tumor growth curve, tumor inhibition curve (see FIGS. 1 and 3) and weight change curve (see FIGS. 2 and 4) were drawn. […]. Among those, docetaxel suffers from high cumulative neurotoxic toxicity and drug resistance although it has the best effect. Comparing to docetaxel, compound 23 has a much lower toxicity and drug resistance, and thus has a great development prospect. […]

The subject of series [8] is DU145 cancer cells. The series is described as follows: Nude mice bearing DU145 cancer cells. The class given is in vivo. As to conditions: for tumor growth: FIG. 3. How it is done: as §3
as §4, with “The nude mice in each group were administered continuously for 40 days.” left out

Regarding `CNC(=O)c1cc(Oc2ccc(NC(=O)Nc3ccc(Cl)c(C(F)(F)F)c3)cc2)ccn1` [sorafenib], in series [1], the “weight loss of nude mice (FIG. 6)” value was “weight loss of nude mice is relatively slow” and the “tumor growth (tumor volume, FIG. 5)” value is “can slow down the tumor growth with increasing drug dose”.

Consider `N#Cc1cc(Nc2ncnc3cc4c(cc23)OCCOCCO4)ccc1OCc1cccc(F)c1` [Compound 36, 2-(3-Fluoro-benzyloxy)-5-(7,8,10,11-tetrahydro-6,9,12-trioxa-1,3-diaza-cyclonona[b]naphthalen-4-ylamino)-benzonitrile], for which the melting point fell in the range of 220 to 222 °C. Also, the IC50 in series [2] (Homo sapiens) is more than 100 µM. Besides, in series [3] (Homo sapiens, MCF7), the IC50 was more than 100 µM. Moreover, the IC50 in series [4] (Homo sapiens) is more than 100 µM. Also, the IC50 in [5] (Homo sapiens) turned out to be 3.52 µM. The IC50 in series [6] (Homo sapiens, DU-145) was found to be 0.31 µM.

In the case of `CNC(=O)c1cc(Oc2ccc(NC(=O)Nc3ccc(Cl)c(C(F)(F)F)c3)c(F)c2)ccn1` [regorafenib], in series [1], the “weight loss of nude mice (FIG. 6)” value is “weight loss of nude mice is similar” and the “tumor growth (tumor volume, FIG. 5)” value is recorded as “can slow down the tumor growth with increasing drug dose”.

Regarding `COc1cc2ncnc(Nc3ccc(F)c(Cl)c3)c2cc1OCCCN1CCOCC1` [Gefitinib, reference compound], the “toxicity / body weight of nude mice (FIG. 2)” value in series [7] is “increased”.

On to `Fc1ccc(COc2ccc(Nc3ncnc4cc5c(cc34)OCCOCCO5)cc2)cc1` [Compound 6, N-(4-((p-fluorophenyl)methoxy)phenyl)-6,7-(benzo-9-crown-3)-4-quinazolinamine], for which the IC50 in [2] is 82.7 µM; in series [3] it was 65.2 µM; in series [4], more than 100 µM; in [5], 43.3 µM; in series [6], more than 100 µM.

As for `Fc1ccc(COc2ccc(Nc3ncnc4cc5c(cc34)OCCOCCO5)cc2)cc1Cl` [Compound 15, N-(4-((3-chloro,4-fluorophenyl)methoxy)phenyl)-6,7-(benzo-9-crown-3)-4-quinazolinamine], the IC50 in [2] was more than 100 µM; in [3] it was more than 100 µM; in series [4] it was 76.5 µM; in series [5], more than 100 µM; in series [6], more than 100 µM.

Take `O=[N+]([O-])c1ccc(COc2cccc(Nc3ncnc4cc5c(cc34)OCCOCCO5)c2)cc1` [Compound 2, N-(3-((4-nitrophenyl)methoxy)phenyl)-6,7-(benzo-9-crown-3)-4-quinazolinamine]: the IC50 in series [2] was 36.6 µM; in series [3], 42.4 µM; in series [4] it was 65.3 µM; in series [5] it was 15.5 µM; in series [6], more than 100 µM.

As for `c1ccc(COc2cccc(Nc3ncnc4cc5c(cc34)OCCOCCOCCOCCO5)c2)cc1` [Compound 28, N-(3-((phenyl)methoxy)phenyl)-6,7-(benzo-15-crown-5)-4-quinazolinamine], the 50% inhibitory concentration (IC50) in series [2] is 39.3 µM; in series [3], more than 100 µM; in [4] it was 55.5 µM; in [5] it was 43.9 µM; in series [6], more than 100 µM.

For `N#Cc1ccc(COc2cccc(Nc3ncnc4cc5c(cc34)OCCOCCOCCO5)c2)cc1` [Compound 10, N-(3-((4-cyanophenyl)methoxy)phenyl)-6,7-(benzo-12-crown-4)-4-quinazolinamine], the IC50 in [2], in [3], in [4], in series [5] and in series [6] was more than 100 µM throughout.

Take `Fc1ccc(COc2ccc(Nc3ncnc4cc5c(cc34)OCCOCCOCCOCCO5)cc2)cc1` [Compound 26, N-(4-((p-fluorophenyl)methoxy)phenyl)-6,7-(benzo-15-crown-5)-4-quinazolinamine]: the IC50 in series [2] is 39.3 µM; in series [3], more than 100 µM; in [4] it was 55.5 µM; in [5], 43.9 µM; in series [6] it was more than 100 µM.

On to `FC(F)(F)c1ccc(COc2cccc(Nc3ncnc4cc5c(cc34)OCCOCCOCCO5)c2)cc1` [Compound 23, N-(3-((4-trifluoromethylphenyl)methoxy)phenyl)-6,7-(benzo-12-crown-4)-4-quinazolinamine], for which the IC50 turned out to be 20 µM in series [2] (Homo sapiens); 17.6 µM in [3] (Homo sapiens, MCF7); 34 µM in series [4] (Homo sapiens); 24.9 µM in [5] (Homo sapiens); 2.76 µM in [6] (Homo sapiens, DU-145). Moreover, the results for the tumor growth entry in series [8] (80 mg/Kg) and in series [8] (160 mg/Kg) were “no longer grown almost” and “no longer grown almost; also recorded: completely inhibited”, respectively. In addition, the “body weight compared with blank control” value in series [8] (80 mg/Kg, after treating for 50 days) was “even heavier than that of the blank control group”. Further, in series [8] (160 mg/kg, FIG. 4), the toxicity result is listed as “no significant toxicity was observed”. Besides, the “toxicity / body weight of nude mice (FIG. 4)” value in series [8] (nude mice bearing DU145) was “very low”. Moreover, in [8] (nude mice bearing DU145, intraperitoneal injection, three doses), the “antitumor effect (tumor volume, FIG. 3)” value is recorded as “significant antitumor effect; also recorded: high inhibitory effect”. The “inhibitory effect on DU145 (in words)” value in series [6] (MTT, summary of Table 1) was “strong specific inhibitory effect”.

As for `Fc1ccc(COc2cccc(Nc3ncnc4cc5c(cc34)OCCOCCO5)c2)cc1` [Compound 5, N-(3-((p-fluorophenyl)methoxy)phenyl)-6,7-(benzo-9-crown-3)-4-quinazolinamine], the IC50 in series [2] was 55.3 µM; in [3], 78.2 µM; in [4] it was more than 100 µM; in series [5], 7.84 µM; in [6], more than 100 µM. For the same compound, in [5] (MTT, summary of Table 1), the “inhibitory activity on A549 (in words)” value is “strong specific inhibitory activity”.

Consider `Fc1ccc(COc2cccc(Nc3ncnc4cc5c(cc34)OCCOCCOCCOCCO5)c2)cc1` [Compound 25, N-(3-((p-fluorophenyl)methoxy)phenyl)-6,7-(benzo-15-crown-5)-4-quinazolinamine], for which the half-maximal inhibitory concentration (IC50) in series [2] is 20 µM; in series [3], more than 100 µM; in series [4] it was 19 µM; in series [5], more than 100 µM; in [6], more than 100 µM.

For `Fc1ccc(COc2ccc(Nc3ncnc4cc5c(cc34)OCCOCCOCCO5)cc2)cc1` [Compound 17, N-(4-((p-fluorophenyl)methoxy)phenyl)-6,7-(benzo-12-crown-4)-4-quinazolinamine], the IC50 is 20.7 µM in series [2]; 8.31 µM in series [3]; more than 100 µM in series [4]; more than 100 µM in [5]; more than 100 µM in series [6]. Moreover, in series [3] (MTT, summary of Table 1), the “inhibitory effect on MCF-7 (in words)” value is recorded as “strong specific inhibitory effect”.

Turning to `FC(F)(F)c1ccc(COc2ccccc2Nc2ncnc3cc4c(cc23)OCCOCCO4)cc1` [Compound 7, N-(2-((4-trifluoromethylphenyl)methoxy)phenyl)-6,7-(benzo-9-crown-3)-4-quinazolinamine], the IC50 in [2] is more than 100 µM; in series [3], more than 100 µM; in [4], 87.4 µM; in series [5], more than 100 µM; in series [6], more than 100 µM.

The term melting point denotes the temperature of the solid-liquid transition. The IC50 is the concentration at which inhibition is half-maximal.
